Measurements published in patent US11534475B2, “Carbohydrate-based peritoneal dialysis fluid comprising glutamine residue” (ZYTOPROTEC GmbH, priority 2007, dated 2022).
Where a SMILES comes first, the peptide text is derived from it.

Columns and labels:
mesothelial cells [1] = experiment: Longterm (24 hours) exposure model, PDF diluted 1:1 with medium: viability by LDH release; format: cell-based; details: PDF diluted 1:1 with M199, L-alanyl-L-glutamine 0.5 and 10.0 g/L, compared to standard PDF
Excerpt: (§1) The acute recovery experimental setting as described for glutamine as a proof of principle for the cytoprotective PDF, is best representative for the early toxic effects of PDF, mainly due to low pH and lactate as major culprits. Alternate models such as a longterm exposure model to unused PDF diluted 1:1 with normal culture medium are better accepted tools to assess effects of cellular processes that occur in the peritoneum upon more extended exposure to PDF, as occurs in clinical PD. […] Additional control cultures are kept in pure regular culture media at 37° C. for the same time. At the end of the study, cell viability and protein expression are assessed in parallel cultures to identify the cytoprotective PDF.

HSP-72 [2] = experiment: Longterm (24 hours) exposure model, PDF diluted 1:1 with medium: HSP-72 expression; format: cell-based; details: PDF diluted 1:1 with M199, L-alanyl-L-glutamine 0.5 and 10.0 g/L, compared to standard PDF
Excerpt: as §1

[3] = system: Immortalized human mesothelial cells (Met5A, ATCC CRL-9444); experiment: In-vitro model of PD: viability by LDH release; format: cell-based; details: for LDH release: % of negative control, mean+/-S.D.
Description: Immortalized human mesothelial cells (Met5A, ATCC CRL-9444) were cultured in M199/MCDB 105 medium (1:1) supplemented with 100 units/ml penicillin, 100 µg/ml streptomycin and 10% FCS. Cultures were kept in 75 cm^2 tissue culture flasks (Falcon, Becton Dickinson, Oxnard, Calif.) at 37° C. in 5% CO2 and passaged by regular trypsinization. Medium was changed every two to three days. Confluence was reached on average after 6 to 7 days.
Confluent cultures were then exposed for 120 minutes to standard glucose-monomer and acidic lactate-based PDF (Fresenius 2, Bad Homburg, Germany), containing 1.5% anhydrous dextrose at pH 5.5, with or without addition of cytoprotective compound (glutamine at 4 to 20 mM) and allowed to recover in regular growth medium for 16 hours. Control cultures were kept in regular culture media at 37° C. and underwent “sham media changes”, i.e.: exposure to PDF was paralleled by exposure to control medium.
Viability of cells was assessed by lactate dehydrogenase (LDH) analyses. Fifty μl aliquots of supernatants were removed after the described experimental setup and kept on 4° C. until analyzed within 48 hours. Measurements were performed in duplicates with Sigma TOX-7 LDH Kit according to the manufacturer instructions. LDH efflux was calculated as percentage of LDH values measured in each negative control experiment. Induction of HSP was assessed in parallel cultures as described below.

HSP-72 [4] = experiment: In-vitro model of PD: HSP-72 expression by Western blotting; format: cell-based, human
Description: Immortalized human mesothelial cells […], ATCC CRL-9444) were cultured in M199/MCDB 105 medium (1:1) supplemented with 100 units/ml penicillin, 100 µg/ml streptomycin and 10% FCS. Cultures were kept in 75 cm^2 tissue culture flasks (Falcon, Becton Dickinson, Oxnard, Calif.) at 37° C. in 5% CO2 and passaged by regular trypsinization. Medium was changed every two to three days. Confluence was reached on average after 6 to 7 days. Confluent cultures were then exposed for 120 minutes to standard glucose-monomer and acidic lactate-based PDF (Fresenius 2, Bad Homburg, Germany), containing 1.5% anhydrous dextrose at pH 5.5, with or without addition of cytoprotective compound ([…] to 20 mM) and allowed to recover in regular growth medium for 16 hours. Control cultures were kept in regular culture media at 37° C. and underwent “sham media changes”, i.e.: exposure to PDF was paralleled by exposure to control medium. Western blotting: Protein content of mesothelial cell harvests was determined by Bradford assay (BioRad) and equal amounts of protein samples (5 μg/lane) were separated by standard SDS-PAGE using a Pharmacia Multiphore II unit. Size-fractionated proteins were transferred to PVDF membranes by semi-dry transfer in a Pharmacia Multiphore II Novablot unit. Membranes were blocked in 5% dry milk in TBS-Tween (10 mM Tris, 150 mM NaCl, 0.05% Tween 20, pH 8.0). Membranes were incubated with the HSP-72 antibody (SPA 810, Stressgen, B.C., Canada). Detection was accomplished by incubation with secondary, peroxidase-coupled antibodies (Sigma, USA) and enhanced chemiluminescence (ECL) using ECL Western blotting analysis system and protocols (Renaissance, NEN-Life Science Products, Boston, Mass., USA). Densitometry was performed with image analysis software (Molecular Analyst software, BioRad, USA). Differential expression of HSP-72 was derived from the ratio of specific signals in the linear range of the protein/signal intensity relationship, normalized to an internal standard, and compared between parallel experiments.

mesothelial cells [5] = experiment: In-vivo acute rat model of PD: mesothelial cell detachment; parameters: species or system Sprague Dawley rats; details: 4 hr dwell, intraperitoneal PDF with or without L-glutamine, mean+/-S.D.
Description: (§2) The studies were carried out on adult male inbred Sprague Dawley rats (average weight 310 g).
After introduction of anaesthesia (ketamine 100 mg/kg and 5 mg/kg xylazine, intramusculary) the animals were placed on a heated small animal operating table. A sterile catheter was inserted into the peritoneal cavity through a small abdominal midline incision and 35 ml of test fluid (PDF with or without addition of L-glutamine at 4-10 mM) were slowly infused in 45-60 secs. The animal was gently moved, a small volume of peritoneal fluid aspirated, the catheter withdrawn and the abdomen sutured. Animals awoke within 20 minutes after the procedure and had free access to food and tap water. At 4 hours after the intraperitoneal injection animals were again anaesthetized, another small volume of peritoneal fluid was aspirated and animals were sacrificed by cardial puncture and exsanguinations. Thereafter, the abdomen was opened by a midline incision and the complete intraperitoneal fluid gently collected. The volumes of the collected fluids were recorded, and total cell count and differential counts at the two time pints (0 and 4 hours) were assessed by hand count after giemsa staining and by machine count by a coulter counter. Total number of detached mesothelial cells was then computed for each rat. […]

peritoneal membrane = experiment: In-vivo acute rat model of PD: barrier function of the peritoneal membrane; parameters: species or system Sprague Dawley rats; details: 4 hr dwell
Description: as §2
After introduction of anaesthesia (ketamine 100 mg/kg and 5 mg/kg xylazine, intramusculary) the animals were placed on a heated small animal operating table. A sterile catheter was inserted into the peritoneal cavity through a small abdominal midline incision and 35 ml of test fluid (PDF with or without addition of L-glutamine at 4-10 mM) were slowly infused in 45-60 secs. The animal was gently moved, a small volume of peritoneal fluid aspirated, the catheter withdrawn and the abdomen sutured. Animals awoke within 20 minutes after the procedure and had free access to food and tap water. At 4 hours after the intraperitoneal injection animals were again anaesthetized, another small volume of peritoneal fluid was aspirated and animals were sacrificed by cardial puncture and exsanguinations. Thereafter, the abdomen was opened by a midline incision and the complete intraperitoneal fluid gently collected. The volumes of the collected fluids were recorded, and total cell count and differential counts at the two time pints (0 and 4 hours) were assessed by hand count after giemsa staining and by machine count by a coulter counter. Total number of detached mesothelial cells was then computed for each rat.
For testing the barrier function of the peritoneal membrane, creatinine, glucose and total protein were measured in dialysate (D) samples and creatinine in plasma (P) at the end of the protocol. D/P ratios for creatinine and D/D0 ratios for glucose were computed. Peritoneal loss of protein was calculated as final dialysate concentration×final volume.

HSP-72 [6] = experiment: In-vivo acute rat model of PD: HSP-72 expression in harvested mesothelial cells; parameters: species or system Sprague Dawley rats; details: 4 hr dwell, L-glutamine supplemented PDF vs standard PDF
Description: After introduction of anaesthesia (ketamine 100 mg/kg and 5 mg/kg xylazine, intramusculary) the animals were placed on a heated small animal operating table. A sterile catheter was inserted into the peritoneal cavity through a small abdominal midline incision and 35 ml of test fluid (PDF with or without addition of L-glutamine at 4-10 mM) were slowly infused in 45-60 secs. The animal was gently moved, a small volume of peritoneal fluid aspirated, the catheter withdrawn and the abdomen sutured. Animals awoke within 20 minutes after the procedure and had free access to food and tap water. At 4 hours after the intraperitoneal injection animals were again anaesthetized, another small volume of peritoneal fluid was aspirated and animals were sacrificed by cardial puncture and exsanguinations. Thereafter, the abdomen was opened by a midline incision and the complete intraperitoneal fluid gently collected. The volumes of the collected fluids were recorded, and total cell count and differential counts at the two time pints (0 and 4 hours) were assessed by hand count after giemsa staining and by machine count by a coulter counter. […]
Western blotting: Protein content of mesothelial cell harvests was determined by Bradford assay (BioRad) and equal amounts of protein samples (5 μg/lane) were separated by standard SDS-PAGE using a Pharmacia Multiphore II unit. […]

| SMILES | Viability assessed by LDH release (mesothelial cells [1]) | HSP-72 expression (HSP-72 [2]) | LDH release ([3]; control conditions (no PDF)) | Viability (LDH release) ([3]; control conditions, L-glutamine up to 20 mM) | LDH release ([3]; during exposure to PDF for 120 min, 16 hours recovery) | HSP-72 expression (HSP-72 [4]; control conditions (no PDF), relative to control, mean+/-S.D.) | HSP-72 expression (HSP-72 [4]; control conditions, L-glutamine 8 and 10 mM) | HSP-72 expression (HSP-72 [4]; during exposure to PDF for 120 min, relative to control, mean+/-S.D.) | Mesothelial cell detachment (mesothelial cells [5]) | D/Do glucose (peritoneal membrane) | D/P creatinine (peritoneal membrane) | Net ultrafiltration (peritoneal membrane) [mL] | Protein loss into the dialysate effluate (peritoneal membrane; final dialysate concentration x final volume) [mg] | HSP-72 expression in rat mesothelial cells (HSP-72 [6]) |
| --- | --- | --- | --- | --- | --- | --- | --- | --- | --- | --- | --- | --- | --- | --- |
| C[C@H](N)C(=O)N[C@@H](CCC(N)=O)C(=O)O [L-alanyl-L-glutamine] (H-Ala-Gln-OH) | preserved viability | increased |  |  |  |  |  |  |  |  |  |  |  |  |
| NC(=O)CC[C@H](N)C(=O)O [L-glutamine] |  |  | 91+/−7% | unchanged viability | 190+/−19% | 234+/−221% | increased | 1895+/−1928% | 38+/−38 cells | 0.469+/−0.04 | 0.375+/−0.11 | 5.4 ± 2.7 | 65 ± 4 | overexpression of HSP-72 |
